Results published in patent US6632630B2, “Monooxygenase assays” (Aclara Biosciences, Inc., priority 2000, dated 2003).

Assay: Solubility in water
Format: physicochemical

solubility in water: very limited solubility
SMILES: O=c1ccc2nc3ccc(OCc4ccccc4)cc3oc-2c1 [7-BR, 7-benzyloxyresorufin]
